{
  "source": "patent US7566712B2",
  "about": "“Biaryl piperazinyl-pyridine analogues” (Neurogen Corporation, priority 2003, dated 2009)",
  "target": "T1, human capsaicin receptor (Homo sapiens, UniProt Q8NER1)",
  "T1 construct": "pBK-CMV expression construct encoding the full length human capsaicin receptor; expressed in transfected cells",
  "T1 sequence (Q8NER1 whole entry)": "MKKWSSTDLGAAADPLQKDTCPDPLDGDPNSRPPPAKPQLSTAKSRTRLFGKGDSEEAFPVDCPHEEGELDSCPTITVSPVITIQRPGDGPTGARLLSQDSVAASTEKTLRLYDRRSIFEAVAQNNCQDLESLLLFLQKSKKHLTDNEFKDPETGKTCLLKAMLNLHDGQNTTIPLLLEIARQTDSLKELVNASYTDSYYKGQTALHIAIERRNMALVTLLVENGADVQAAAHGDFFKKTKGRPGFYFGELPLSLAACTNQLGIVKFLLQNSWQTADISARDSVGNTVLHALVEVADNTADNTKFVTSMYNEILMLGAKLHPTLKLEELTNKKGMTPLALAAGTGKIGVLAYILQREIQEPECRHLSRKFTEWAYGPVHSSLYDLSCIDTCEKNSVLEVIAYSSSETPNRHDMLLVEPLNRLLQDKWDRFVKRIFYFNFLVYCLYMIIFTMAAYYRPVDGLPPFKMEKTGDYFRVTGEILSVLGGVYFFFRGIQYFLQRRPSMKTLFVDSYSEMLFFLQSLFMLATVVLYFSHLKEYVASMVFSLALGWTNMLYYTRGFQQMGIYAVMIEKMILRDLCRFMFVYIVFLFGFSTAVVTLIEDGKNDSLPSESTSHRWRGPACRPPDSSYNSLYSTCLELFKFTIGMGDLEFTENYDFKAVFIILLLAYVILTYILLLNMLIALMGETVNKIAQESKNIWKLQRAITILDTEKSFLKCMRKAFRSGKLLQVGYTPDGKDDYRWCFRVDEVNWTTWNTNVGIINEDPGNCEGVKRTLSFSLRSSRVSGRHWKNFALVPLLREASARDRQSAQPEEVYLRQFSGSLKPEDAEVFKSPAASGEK",
  "assay": "Calcium mobilization assay, determination of antagonist activity (Example 6)",
  "type": "cell-based",
  "conditions": "determined as described in Example 6 (calcium mobilization, antagonist activity); Table II",
  "procedure,_shortened": "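HEK293 clonal lines stably expressing full-length human capsaicin receptor, loaded with Fluo-3 AM in KRH buffer pH 7.4, 1–2 h at 37 °C. Compounds (1–5 μM final) preincubated 0.5–6 h at room temperature, then capsaicin at its EC50 added. FLIPR/Fluoroskan calcium signal; IC50 as 50% decrease of capsaicin response.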",
  "data": [
    {"smiles": "CC1CN(c2nc(-c3ccc(F)c(Cl)c3)cc(N3CCN(c4ncccc4C(F)(F)F)CC3)n2)CCN1", "note": "(centres unmarked) [Example 614, 4-(3-chloro-4-fluorophenyl)-2-(3-methylpiperazin-1-yl)-6-{4-[3-(trifluoromethyl)pyridin-2-yl]piperazin-1-yl}pyrimidine]", "values": [
      {"measurement": "IC50", "result": "≤ 1000", "unit": "nM"}
    ]},
    {"smiles": "CC(C)CN(C)c1nc(-c2ccc(F)c(Cl)c2)cc(N2CCN(c3ncccc3C(F)(F)F)CC2)n1", "note": "[Example 615, 4-(3-chloro-4-fluorophenyl)-N-isobuty-methyl-6-{4-[3-(trifluoromethyl)pyridin-2-yl]piperazin-1-yl}pyrimidin-2-amine]", "values": [
      {"measurement": "IC50", "result": "≤ 1000", "unit": "nM"}
    ]},
    {"smiles": "Cc1cccnc1-c1nc(-c2ccc(F)c(Cl)c2)cc(N2CCN(c3ncccc3C(F)(F)F)CC2)n1", "note": "[Example 616, 4-(3-chloro-4-fluorophenyl)-2-(3-methylpyridin-2-yl)-6-{4-[3-(trifluoromethyl)pyridin-2-yl]piperazin-1-yl}pyrimidine]", "values": [
      {"measurement": "IC50", "result": "≤ 1000", "unit": "nM"}
    ]},
    {"smiles": "Fc1ccc(-c2cc(N3CCN(c4ncccc4C(F)(F)F)CC3)nc(-c3ccncc3)n2)cc1Cl", "note": "[Example 617, 4-(3-chloro-4-fluorophenyl)-2-pyridin-4-yl-6-{4-[3-(trifluoromethyl)pyridin-2-yl]piperazin-1-yl}pyrimidine]", "values": [
      {"measurement": "IC50", "result": "≤ 1000", "unit": "nM"}
    ]},
    {"smiles": "CC(C)c1nccn1-c1nc(-c2cccc(Cl)c2)cc(N2CCN(c3ncccc3C(F)(F)F)CC2)n1", "note": "[Example 618, 4-(3-chlorophenyl)-2-(2-isopropyl-1H-imidazol-1-yl)-6-{4-[3-(trifluoromethyl)pyridin-2-yl]piperazin-1-yl}pyrimidine]", "values": [
      {"measurement": "IC50", "result": "≤ 1000", "unit": "nM"}
    ]},
    {"smiles": "CN(CC(=O)O)c1nc(-c2ccc(F)c(Cl)c2)cc(N2CCN(c3ncccc3C(F)(F)F)CC2)n1", "note": "[Example 619, N-(4-(3-chloro-4-fluorophenyl)-6-{4-[3-(trifluoromethyl)pyridin-2-yl]piperazin-1-yl}pyrimidin-2-yl)-N-methylglycine]", "values": [
      {"measurement": "IC50", "result": "≤ 1000", "unit": "nM"}
    ]},
    {"smiles": "C[C@H](Nc1nc(-c2ccc(F)c(Cl)c2)cc(N2CCN(c3ncccc3C(F)(F)F)CC2)n1)C(=O)O", "note": "[Example 620, N-(4-(3-chloro-4-fluorophenyl)-6-{4-[3-(trifluoromethyl)pyridin-2-yl]piperazin-1-yl}pyrimidin-2-yl)alanine]", "values": [
      {"measurement": "IC50", "result": "≤ 1000", "unit": "nM"}
    ]},
    {"smiles": "CCN1CCN(c2nc(-c3ccc(F)c(Cl)c3)cc(N3CCN(c4ncccc4C(F)(F)F)CC3)n2)CC1", "note": "[Example 623, 4-(3-chloro-4-fluorophenyl)-2-(4-ethylpiperazin-1-yl)-6-{4-[3-(trifluoromethyl)pyridin-2-yl]piperazin-1-yl}pyrimidine]", "values": [
      {"measurement": "IC50", "result": "≤ 1000", "unit": "nM"}
    ]},
    {"smiles": "Fc1ccc(-c2cc(N3CCN(c4ncccc4C(F)(F)F)CC3)nc(N3CCN(CC4CC4)CC3)n2)cc1Cl", "note": "[Example 624, 4-(3-chloro-4-fluorophenyl)-2-[4-(cyclopropylmethyl)piperazin-1-yl]-6-{4-[3-(trifluoromethyl)pyridin-2-yl]piperazin-1-yl}pyrimidine]", "values": [
      {"measurement": "IC50", "result": "≤ 1000", "unit": "nM"}
    ]},
    {"smiles": "CC(=O)N1CCN(c2nc(-c3ccc(F)c(Cl)c3)cc(N3CCN(c4ncccc4C(F)(F)F)CC3)n2)CC1", "note": "[Example 625, 2-(4-acetylpiperazin-1-yl)-4-(3-chloro-4-fluorophenyl)-6-{4-[3-(trifluoromethyl)pyridin-2-yl]piperazin-1-yl}pyrimidine]", "values": [
      {"measurement": "IC50", "result": "≤ 1000", "unit": "nM"}
    ]},
    {"smiles": "CCC(=O)N1CCN(c2nc(-c3ccc(F)c(Cl)c3)cc(N3CCN(c4ncccc4C(F)(F)F)CC3)n2)CC1", "note": "[Example 626, 4-(3-chloro-4-fluorophenyl)-2-(4-propionylpiperazin-1-yl)-6-{4-[3-(trifluoromethyl)pyridin-2-yl]piperazin-1-yl}pyrimidine]", "values": [
      {"measurement": "IC50", "result": "≤ 1000", "unit": "nM"}
    ]},
    {"smiles": "C[C@@H]1CN(c2nc(-c3ccc(F)c(Cl)c3)cc(N3CCN(c4ncccc4C(F)(F)F)CC3)n2)[C@@H](C)CN1", "note": "[Example 627, 4-(3-chloro-4-fluorophenyl)-2-[(2S,5R)-2,5-dimethylpiperazin-1-yl]-6-{4-[3-(trifluoromethyl)pyridin-2-yl]piperazin-1-yl}pyrimidine]", "values": [
      {"measurement": "IC50", "result": "≤ 1000", "unit": "nM"}
    ]},
    {"smiles": "C[C@@H]1CN(c2nc(-c3ccc(F)c(Cl)c3)cc(N3CCN(c4ncccc4C(F)(F)F)CC3)n2)[C@@H](C)CN1C", "note": "[Example 628, 4-(3-chloro-4-fluorophenyl)-6-{4-[3-(trifluoromethyl)pyridin-2-yl]piperazin-1-yl}-2-[(2S,5R)-2,4,5-trimethylpiperazin-1-yl]pyrimidine]", "values": [
      {"measurement": "IC50", "result": "≤ 1000", "unit": "nM"}
    ]},
    {"smiles": "CC1CNCCN1c1nc(-c2ccc(F)c(Cl)c2)cc(N2CCN(c3ncccc3C(F)(F)F)CC2)n1", "note": "(centres unmarked) [Example 629, 4-(3-chloro-4-fluorophenyl)-2-(2-methylpiperazin-1-yl)-6-{4-[3-(trifluoromethyl)pyridin-2-yl]piperazin-1-yl}pyrimidine]", "values": [
      {"measurement": "IC50", "result": "≤ 1000", "unit": "nM"}
    ]},
    {"smiles": "CC1CN(C)CCN1c1nc(-c2ccc(F)c(Cl)c2)cc(N2CCN(c3ncccc3C(F)(F)F)CC2)n1", "note": "(centres unmarked) [Example 630, 4-(3-chloro-4-fluorophenyl)-2-(2,4-dimethylpiperazin-1-yl)-6-{4-[3-(trifluoromethyl)pyridin-2-yl]piperazin-1-yl}pyrimidine]", "values": [
      {"measurement": "IC50", "result": "≤ 1000", "unit": "nM"}
    ]},
    {"smiles": "Cc1cncc(-c2cc(N3CCN(c4ncccc4C(F)(F)F)CC3)nc(N3CCOCC3)n2)c1", "note": "[Example 631, 4-(4-(5-methylpyridin-3-yl)-6-{4-[3-(trifluoromethyl)pyridin-2-yl]piperazin-1-yl}pyrimidin-2-yl)morpholine]", "values": [
      {"measurement": "IC50", "result": "≤ 1000", "unit": "nM"}
    ]},
    {"smiles": "CC1CN(c2cc(-c3ccc(F)c(Cl)c3)nc(N3CCOCC3)n2)CCN1c1ccccn1", "note": "(centres unmarked) [Example 632, 4-[4-(3-chloro-4-fluorophenyl)-6-(3-methyl-4-pyridin-2-ylpiperazin-1-yl)pyrimidin-2-yl]morpholine]", "values": [
      {"measurement": "IC50", "result": "≤ 1000", "unit": "nM"}
    ]},
    {"smiles": "CCc1nccn1-c1nc(-c2cccc(Cl)c2)cc(N2CCN(c3ncccc3C(F)(F)F)CC2)n1", "note": "[Example 633, 4-(3-chlorophenyl)-2-(2-ethyl-1H-imidazol-1-yl)-6-{4-[3-(trifluoromethyl)pyridin-2-yl]peperazin-1-yl}pyrimidine]", "values": [
      {"measurement": "IC50", "result": "≤ 1000", "unit": "nM"}
    ]},
    {"smiles": "CC1CN(c2nc(-c3ccc(F)c(Cl)c3)cc(N3CCN(c4ncccc4C(F)(F)F)CC3)n2)CCN1C", "note": "(centres unmarked) [Example 634, 4-(3-chloro-4-fluorophenyl)-2-(3,4-dimethylpiperazin-1-yl)-6-{4-[3-(trifluoromethyl)pyridin-2-yl]piperazin-1-yl}pyrimidine]", "values": [
      {"measurement": "IC50", "result": "≤ 1000", "unit": "nM"}
    ]},
    {"smiles": "Fc1ccc(-c2cc(N3CCN(c4ncccc4C(F)(F)F)CC3)nc(-c3ncco3)n2)cc1Cl", "note": "[Example 635, 4-(3-chloro-4-fluorophenyl)-2-(1,3-oxazol-2-yl)-6-{4-[3-(trifluoromethyl)pyridin-2-yl]piperazin-1-yl}pyrimidine]", "values": [
      {"measurement": "IC50", "result": "≤ 1000", "unit": "nM"}
    ]},
    {"smiles": "CC1(C)CN(c2nc(-c3ccc(F)c(Cl)c3)cc(N3CCN(c4ncccc4C(F)(F)F)CC3)n2)CCO1", "note": "[Example 636, 4-(4-(3-chloro-4-fluorophenyl)-6-{4-[3-(trifluoromethyl)pyridin-2-yl]piperazin-1-yl}pyrimidin-2-yl)-2,2-dimethylmorpholine]", "values": [
      {"measurement": "IC50", "result": "≤ 1000", "unit": "nM"}
    ]},
    {"smiles": "Cc1cn(-c2nc(-c3cccc(Cl)c3)cc(N3CCN(c4ncccc4C(F)(F)F)CC3)n2)c(C)n1", "note": "[Example 637, 4-(3-chlorophenyl)-2-(2,4-dimethyl-1H-imidazol-1-yl)-6-(4-[3-(trifluoromethyl)pyridin-2-yl]piperazin-1-yl}pyrimidine]", "values": [
      {"measurement": "IC50", "result": "≤ 1000", "unit": "nM"}
    ]},
    {"smiles": "Cc1cc(-c2cc(N3CCN(c4ncccc4C(F)(F)F)CC3)nc(Cl)n2)ccc1F", "note": "[Example 638, 2-chloro-4-(4-fluoro-3-methylphenyl)-6-{4-[3-(trifluoromethyl)pyridin-2-yl]piperazin-1-yl}pyrimidine]", "values": [
      {"measurement": "IC50", "result": "≤ 1000", "unit": "nM"}
    ]}
  ]
}
